Reference: patent publication US20260125372A1, “DYNAMIN-1-LIKE PROTEIN INHIBITORS AND USES THEREOF” (Astellas Engineered Small Molecules US, Incorporated, priority 2022, published 2026)

Biological target: T1, DRP1 (Homo sapiens, UniProt O00429)
T1 construct: Human DRIP1 (UniProtID: O00429.4, residues 1-699); made in house; host or cells: Escherichia coli BL21 CodonPlus DE3
Experiment: AlphaLISA assay (His-DRP1 / MiD49-GST interaction)
Format: binding
Conditions: His-DRP1 200 nM, MiD49-GST 20 nM, GMP-PNP 100 uM
Method: Human DRIP1 (UniProtID: O00429.4, residues 1-699), and human MiD49 (UnitProtIS: Q96C03.1, residues 126-454) was cloned into a pET15b vector as an N-terminal His-tag Fusion. All constructs were transformed in Escherichia coli host strain BL21 CodonPlus DE3. Bacteria was grown in LB media with 100 μg/ml ampicillin and 34 μg/ml chloramphenicol in an orbital shaker at 37° C. until OD600 reached 0.4, at which temperature was reduced to 16° C. Recombinant protein expression was expressed for 18 hr by the addition of IPTG at OD600 of about 0.8. All cultures were spun down and bacterial pellets were used for protein purification.
For His-DRP1, the pellets were resuspended in DRP-buffer A (20 mM Tris, 500 KCl, 1.89 β-ME, pH 8.0) and protease inhibitor cocktail (Roche), followed by cell disruption by sonication (400 W, pulse 3 sec on, 3 sec off, total 20 min). The lysate was centrifuged at 20,000 g and then supernatant applied to a preequilibrated Ni-NTA column with DRP-buffer A. The column was extensively washed with buffer A containing 50 mM imidazole. Purified His-DRP1 was eluted with DRP-buffer A containing 250 mM imidazole and dialyzed overnight at 4° C. (18 kDa cutoff) against DRP-buffer A to remove imidazole. For AlphaLISA, the His tag was retained on DRP1 full-length.
For MiD49-GST, the bacterial pellets were resuspended and sonicated in MID lysis buffer (25 mM Tris-HCl, pH 7.5, 500 mM NaCl, 5% glycerol, 1 mM TCEP, and 0.5% CHAPS). The lysate was pre-cleared at 20,300 g before applying to a glutathione column. Unbound proteins were washed using MID-buffer A (25 mM Tris-HCl, pH 7.5, 300 mM NaCl, 5% glycerol, 1 mM TCEP) and MID-buffer B (25 mM Tris-HCl, pH 7.5, 300 mM NaCl, 5% glycerol, 1 mM TCEP, 1 mM GSH). The protein was eluted with MID-buffer C (25 mM Tris-HCl, pH 7.5, 300 mM NaCl, 5% glycerol, 1 mM TCEP, 10 mM GSH). The target protein was concentrated in the ultra-filtration tube with MW cutoff 30 kDa and further purified by size-exclusion chromatography on a Superdex-200 column (GE Healthcare) in buffer A. Fractions containing MiD49-GST (126-454) were pooled, concentrated, flash-frozen as single-use aliquots in liquid nitrogen and stored at −80° C.
A total of 100 nl of compounds were plated in a 384-well AlphaPlate (PerkinElmer, Waltham, MA) at concentrations 100 uM to […] in DMSO (dilution by 3.165 for 11 concentration levels). Recombinant His-DRP1 (200 nM), MiD49-GST (20 nM), and GMP-PNP (100 uM) were mixed in assay buffer (PBS with 1.5% BSA, 1 mM DTT). Five microliters of the protein mixture were added to the plate and incubate at room temperature for 30 min. Glutathione donor beads and nickel chelate acceptor beads were diluted and mixed in assay buffer to obtain 40 μg/ml of each bead. Five microliters of the mixed beads were added to each well on the microplate leading to a final bead concentration of 20 µg/ml per well. The sealed plate was incubated at room temperature for 60 min and protected from light. The AlphaLISA signal was detected with an EnVision Multilabel Reader (excitation at 680 and emission 615 nm). GraphPad Prism was used to calculate the IC50 by applying sigmoidal dose-response fit (variable slope).

T1 sequence (O00429 1-699 isoform O00429-4): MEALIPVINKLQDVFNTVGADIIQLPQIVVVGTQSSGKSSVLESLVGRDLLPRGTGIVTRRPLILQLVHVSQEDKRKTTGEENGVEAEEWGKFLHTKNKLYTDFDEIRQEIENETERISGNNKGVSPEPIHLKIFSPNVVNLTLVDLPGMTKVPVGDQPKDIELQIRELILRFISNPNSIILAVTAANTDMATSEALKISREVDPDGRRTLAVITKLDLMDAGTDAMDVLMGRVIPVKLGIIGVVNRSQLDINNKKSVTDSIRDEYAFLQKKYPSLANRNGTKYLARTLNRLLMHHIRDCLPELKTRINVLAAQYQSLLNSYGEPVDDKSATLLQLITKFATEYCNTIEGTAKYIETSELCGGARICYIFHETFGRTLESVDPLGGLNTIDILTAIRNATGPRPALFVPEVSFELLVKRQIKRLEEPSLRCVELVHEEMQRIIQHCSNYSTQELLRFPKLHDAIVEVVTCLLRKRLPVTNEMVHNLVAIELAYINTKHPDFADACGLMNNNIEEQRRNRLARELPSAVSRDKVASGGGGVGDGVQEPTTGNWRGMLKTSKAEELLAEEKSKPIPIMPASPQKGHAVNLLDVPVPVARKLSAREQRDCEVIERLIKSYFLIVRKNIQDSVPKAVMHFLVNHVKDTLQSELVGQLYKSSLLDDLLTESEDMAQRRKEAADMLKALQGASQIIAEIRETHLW

| Structure (SMILES) | IC50 [µM] |
| --- | --- |
| COCCOc1cc(-c2cncs2)nc2ccc(NC(=O)[C@H]3C[C@@H](OC)C3)cc12 [Example 33, cis-3-methoxy-N-(4-(2-methoxyethoxy)-2-(thiazol-5-yl)quinolin-6-yl)cyclobutane-1-carboxamide] | < 0.5 |
| COCCOc1cc(-c2cncs2)nc2ccc(NC(=O)[C@H]3C[C@H](OC)C3)cc12 [Example 34, trans-3-methoxy-N-(4-(2-methoxyethoxy)-2-(thiazol-5-yl)quinolin-6-yl)cyclobutane-1-carboxamide] | > 10 |
| COCCOc1cc(-c2cncs2)nc2ccc(NC(=O)c3cnoc3)cc12 [Example 35, N-(4-(2-methoxyethoxy)-2-(thiazol-5-yl)quinolin-6-yl)isoxazole-4-carboxamide] | 0.5 to 1 |
| COCCOc1cc(-c2cncs2)nc2ccc(NC(=O)[C@H](C)OC)cc12 [Example 36, (S)-2-methoxy-N-(4-(2-methoxyethoxy)-2-(thiazol-5-yl)quinolin-6-yl)propanamide] | < 0.5 |
| COCCOc1cc(-c2cncs2)nc2ccc(NC(=O)[C@@H](C)OC)cc12 [Example 37, (R)-2-methoxy-N-(4-(2-methoxyethoxy)-2-(thiazol-5-yl)quinolin-6-yl)propanamide] | < 0.5 |
| COCC(C)Oc1cc(-c2cncs2)nc2ccc(NC(=O)C3COC3)cc12 (stereo not shown) [Example 38, N-(4-((1-methoxypropan-2-yl)oxy)-2-(thiazol-5-yl)quinolin-6-yl)oxetane-3-carboxamide] | < 0.5 |
| COCC(C)(C)Oc1cc(-c2cncs2)nc2ccc(NC(=O)C3COC3)cc12 [Example 39, N-(4-((1-methoxy-2-methylpropan-2-yl)oxy)-2-(thiazol-5-yl)quinolin-6-yl)oxetane-3-carboxamide] | 1 to 10 |
| COCCOc1cc(-n2cnc(C3CC3)c2)nc2ccc(NC(=O)C3COC3)cc12 [Example 40, N-(2-(4-cyclopropyl-1H-imidazol-1-yl)-4-(2-methoxyethoxy)quinolin-6-yl)oxetane-3-carboxamide] | < 0.5 |
| COCCOc1cc(-n2cnc(C)c2)nc2ccc(NC(=O)C3COC3)cc12 [Example 41, N-(4-(2-methoxyethoxy)-2-(4-methyl-1H-imidazol-1-yl)quinolin-6-yl)oxetane-3-carboxamide] | < 0.5 |
| O=C(Nc1ccc2nc(-n3ccnc3)cc(OCCO)c2c1)C1COC1 [Example 42, N-(4-(2-hydroxyethoxy)-2-(1H-imidazol-1-yl)quinolin-6-yl)oxetane-3-carboxamide] | 1 to 10 |
| Cc1cn(-c2cc(OC3CC3)c3cc(NC(=O)C4COC4)ccc3n2)cn1 [Example 43, N-(4-cyclopropoxy-2-(4-methyl-1H-imidazol-1-yl)quinolin-6-yl)oxetane-3-carboxamide] | 1 to 10 |
| CCOc1cc(-n2cnc(Cl)c2)nc2ccc(NC(=O)C3COC3)cc12 [Example 44, N-(2-(4-chloro-1H-imidazol-1-yl)-4-ethoxyquinolin-6-yl)oxetane-3-carboxamide] | 0.5 to 1 |
| CCOc1cc(-n2cnnc2)nc2ccc(NC(=O)C3COC3)cc12 [Example 45, N-(4-ethoxy-2-(4H-1,2,4-triazol-4-yl)quinolin-6-yl)oxetane-3-carboxamide] | 1 to 10 |
| CCOc1cc(-n2cnc(C#N)c2)nc2ccc(NC(=O)C3COC3)cc12 [Example 46, N-(2-(4-cyano-1H-imidazol-1-yl)-4-ethoxyquinolin-6-yl)oxetane-3-carboxamide] | 1 to 10 |
| CCOc1cc(-n2cnc(C(C)(C)C)c2)nc2ccc(NC(=O)C3COC3)cc12 [Example 47, N-(2-(4-(tert-butyl)-1H-imidazol-1-yl)-4-ethoxyquinolin-6-yl)oxetane-3-carboxamide] | > 10 |
| COC[C@H](C)Oc1cc(-c2cncs2)nc2ccc(NC(=O)C(C)C#N)cc12 (stereo partly drawn) [Example 48, 2-cyano-N-(4-(((S)-1-methoxypropan-2-yl)oxy)-2-(thiazol-5-yl)quinolin-6-yl)propanamide] | 0.5 to 1 |
| COC[C@@H](C)Oc1cc(-c2cncs2)nc2ccc(NC(=O)C(C)C#N)cc12 (stereo partly drawn) [Example 49, 2-cyano-N-(4-(((R)-1-methoxypropan-2-yl)oxy)-2-(thiazol-5-yl)quinolin-6-yl)propanamide] | 1 to 10 |
| COC[C@H](C)Oc1cc(-c2cncs2)nc2ccc(NC(=O)[C@H](C)OC)cc12 [Example 50, (S)-2-methoxy-N-(4-(((S)-1-methoxypropan-2-yl)oxy)-2-(thiazol-5-yl)quinolin-6-yl)propanamide] | 1 to 10 |
| COC[C@@H](C)Oc1cc(-c2cncs2)nc2ccc(NC(=O)[C@H](C)OC)cc12 [Example 51, (S)-2-methoxy-N-(4-(((R)-1-methoxypropan-2-yl)oxy)-2-(thiazol-5-yl)quinolin-6-yl)propanamide] | > 10 |
| COC[C@@H](C)Oc1cc(-c2cncs2)nc2ccc(NC(=O)C3COC3)cc12 [Example 52, (R)—N-(4-((1-methoxypropan-2-yl)oxy)-2-(thiazol-5-yl)quinolin-6-yl)oxetane-3-carboxamide] | 1 to 10 |
| COCCOc1cc(-c2cnn(C)c2)nc2ccc(NC(=O)C3COC3)cc12 [Example 53, N-(4-(2-methoxyethoxy)-2-(1-methyl-1H-pyrazol-4-yl)quinolin-6-yl)oxetane-3-carboxamide] | 0.5 to 1 |
| CCOc1cc(-n2cnc(C)c2)nc2c(C)cc(NC(=O)C3COC3)cc12 [Example 54, N-(4-ethoxy-8-methyl-2-(4-methyl-1H-imidazol-1-yl)quinolin-6-yl)oxetane-3-carboxamide] | 1 to 10 |
